The results in this text go back to paper PMC12019362, “Conformational changes in the motor ATPase CpaF facilitate a rotary mechanism of Tad pilus assembly” (Nature Communications, 2025).

The target in one series is T1, CpaF^66-501 (Caulobacter vibrioides, UniProt Q9L714).
T1 construct: IDR truncation, residues 66-501, N-terminal His6 tag (pET28a), E. coli Rosetta 2
Briefly: enzyme-coupled ATPase assay (pyruvate kinase / lactate dehydrogenase, NADH at […] nm). The class given is biochemical. As to conditions: 1 mM ATP, 1 mM MgCl2, pH 8.0, 30 °C.

In the next series the target is T2, CpaF^80-501 (Caulobacter vibrioides, UniProt Q9L714).
T2 construct: IDR truncation, residues 80-501 (whole IDR removed), N-terminal His6 tag (pET28a), E. coli Rosetta 2
Described as above. The class given is biochemical. To be noted: 1 mM ATP, 1 mM MgCl2, pH 8.0, 30 °C.

The target of another series is T3, CpaF (Caulobacter vibrioides, UniProt Q9L714, K287A).
T3 construct: full length (501 residues), N-terminal His6 tag (pET28a), tag removal not described, E. coli Rosetta 2; homohexamer; residues 80-501 modelled
The series is described as above. In kind it is biochemical. As to conditions: 1 mM ATP, 1 mM MgCl2, pH 8.0, 30 °C; Walker A mutant.

The next series deals with T4, CpaF^73-501 (Caulobacter vibrioides, UniProt Q9L714).
T4 construct: IDR truncation, residues 73-501, N-terminal His6 tag (pET28a), E. coli Rosetta 2
Described as above. The class given is biochemical. As to conditions: 1 mM ATP, 1 mM MgCl2, pH 8.0, 30 °C.

Series [1] deals with the molecule itself. Briefly: cryo-EM structure; purified CpaF, 5 mg/mL, 50 mM HEPES pH 8.0, 200 mM NaCl, 1 mM TCEP, 0.05% CHAPS; three samples: no added nucleotide, 50 uM equimolar ATP/ADP/MgCl2, 1 mM ATP/MgCl2; C2-symmetric hexamers (closed, compact, expanded).

T3 sequence (Q9L714 entry or part of it K287A): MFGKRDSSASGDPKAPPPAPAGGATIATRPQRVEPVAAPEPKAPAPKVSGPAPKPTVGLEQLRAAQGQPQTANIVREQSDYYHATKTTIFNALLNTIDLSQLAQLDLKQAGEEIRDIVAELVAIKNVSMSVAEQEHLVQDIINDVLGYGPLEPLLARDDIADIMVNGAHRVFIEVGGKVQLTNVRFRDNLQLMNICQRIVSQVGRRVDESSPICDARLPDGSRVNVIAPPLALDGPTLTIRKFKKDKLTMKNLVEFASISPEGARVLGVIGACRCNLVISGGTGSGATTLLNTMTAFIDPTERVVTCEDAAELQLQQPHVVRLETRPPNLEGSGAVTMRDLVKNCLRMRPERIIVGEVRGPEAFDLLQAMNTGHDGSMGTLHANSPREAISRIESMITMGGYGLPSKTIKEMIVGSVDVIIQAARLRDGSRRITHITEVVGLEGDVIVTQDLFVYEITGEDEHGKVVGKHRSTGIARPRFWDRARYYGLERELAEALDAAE

`Nc1ncnc2c1ncn2[C@@H]1O[C@H](COP(=O)(O)OP(=O)(O)OP(=O)(O)O)[C@@H](O)[C@H]1O` [ATP]: the ATPase activity entry was “Enzyme-coupled ATPase assays revealed that IDR truncation does not abrogate enzyme activity” at CpaF^66-501, “Enzyme-coupled ATPase assays revealed that IDR truncation does not abrogate enzyme activity” at CpaF^80-501, “IDR truncation does not abrogate enzyme activity while a Walker A motif point mutant CpaF^K287A does” at CpaF and “Enzyme-coupled ATPase assays revealed that IDR truncation does not abrogate enzyme activity” on CpaF^73-501.

B1: Caulobacter crescentus CpaF (Tad pilus motor ATPase) (enzyme, Caulobacter crescentus NA1000, UniProt Q9L714 1-501, looked up)
chain: MFGKRDSSASGDPKAPPPAPAGGATIATRPQRVEPVAAPEPKAPAPKVSGPAPKPTVGLEQLRAAQGQPQTANIVREQSDYYHATKTTIFNALLNTIDLSQLAQLDLKQAGEEIRDIVAELVAIKNVSMSVAEQEHLVQDIINDVLGYGPLEPLLARDDIADIMVNGAHRVFIEVGGKVQLTNVRFRDNLQLMNICQRIVSQVGRRVDESSPICDARLPDGSRVNVIAPPLALDGPTLTIRKFKKDKLTMKNLVEFASISPEGARVLGVIGACRCNLVISGGTGSGKTTLLNTMTAFIDPTERVVTCEDAAELQLQQPHVVRLETRPPNLEGSGAVTMRDLVKNCLRMRPERIIVGEVRGPEAFDLLQAMNTGHDGSMGTLHANSPREAISRIESMITMGGYGLPSKTIKEMIVGSVDVIIQAARLRDGSRRITHITEVVGLEGDVIVTQDLFVYEITGEDEHGKVVGKHRSTGIARPRFWDRARYYGLERELAEALDAAE
notes: CpaF, Caulobacter crescentus NA1000, cloned from genomic DNA into pET28a; 501 residues (IDR 1-79, 3HB 80-146, NTD-CAD 147-501); residues 80-501 are modelled in the maps, the IDR is not resolved; Hexamer with C2 symmetry in all five cryo-EM structures; the construct was cloned from strain NA1000; also called WT CpaF; full length CpaF; source: E. coli Rosetta 2, purified (Ni-NTA, Superose 6 SEC)
Consider B1, for which the “stoichiometry N” value in series [1] stood at 6.

One may read the stoichiometry N as a count of units in the complex or per binding partner.
